In patent publication US11278555B2, “Combinational therapies for treatment of cancer comprising a bacteriochlorophyll derivative” (Yeda Research and Development Co. Ltd., priority 2016, dated 2022):

What was measured:
[1] = test system: orthotopic 4T1-Luc breast tumors; test: Whole-body NIR fluorescence imaging of accumulation and clearance in 4T1 tumor bearing mice; format: in vivo; details: i.v.
Method: • (i) Bacteriochlorophyll Derivatives—The Bchl derivatives and RGD-conjugates thereof were provided by Steba Biotech (Rehovot, Israel). […] Concentration was verified by spectrophotometric measurement. STL-7012 was provided as dipotassium salt. Working solution was prepared by dissolving STL-7012 K^+ salt in 5% mannitol solution (1 mg/ml). […] WST11 was supplied as a powder and kept in the dark at −20° C. Stock was prepared by dissolving WST11 in DDW containing 5% glucose and 0.67% mannitol, aliquoted and lyophilized. Working solution was reconstituted with DDW and the concentration of solution was confirmed spectrophotometrically. Alternatively, Clinical WST11 (batch: P00611, and 10-130611) was supplied as lyophilized formulation. Material was dissolved in 5% dextrose, aliquoted and stored at −20° C. […] Aliquots were thawed, diluted with saline to a desired concentration and used on the same day at a dose of 75 mg/kg. […] Whole body imaging of luciferase-transfected tumors and metastases were recorded five minutes following 75 mg Kg^−1 intraperitoneal (i.p.) injection of D-luciferin with respective filter sets. • (vi) PDT treatment protocol: 4T1-Luc cells were grafted in the mammary pad of Balb/c mice. […] Ablation of primary tumors was assessed every 7 days by imaging the tumor's luciferase-mediated bioluminescence signal, using IVIS.

[2] = test system: orthotopic 4T1-Luc tumors; test: STL-6014 PDT and metronomic Gemzar in mice bearing 4T1-Luc tumors in the mammary pad (Scheme 1): primary tumor, survival, lung metastases, re-challenge; format: in vivo, Balb/c mice
Method: (§1) • (i) Bacteriochlorophyll Derivatives—The Bchl derivatives and RGD-conjugates thereof were provided by Steba Biotech (Rehovot, Israel). […] Concentration was verified by spectrophotometric measurement. STL-7012 was provided as dipotassium salt. Working solution was prepared by dissolving STL-7012 K^+ salt in 5% mannitol solution (1 mg/ml). […] WST11 was supplied as a powder and kept in the dark at −20° C. Stock was prepared by dissolving WST11 in DDW containing 5% glucose and 0.67% mannitol, aliquoted and lyophilized. Working solution was reconstituted with DDW and the concentration of solution was confirmed spectrophotometrically. Alternatively, Clinical WST11 (batch: P00611, and 10-130611) was supplied as lyophilized formulation. Material was dissolved in 5% dextrose, aliquoted and stored at −20° C. At the day of treatment the aliquot was thawed, filtered and the concentration of solution was confirmed spectrophotometrically. • (ii) Chemotherapeutic drugs preparation and storage—Gemcitabine (GEM, Gemzar®, Lilly) was purchased from a local pharmacy as a powder, dissolved in saline to a concentration of 38 mg/ml, aliquoted and stored at −20° C. Aliquots were thawed, diluted with saline to a desired concentration and used on the same day at a dose of 75 mg/kg. Cyclophosphamide (CTX, Endoxan®, Baxter Oncology Gmbh, Germany) was purchased from a local pharmacy. A stock solution of 20 mg/ml was prepared by dissolving in 0.9% NaCl, aliquoted and stored at −20° C. Aliquots were thawed, diluted with saline if needed to a desired concentration and used on the same day prepared at indicated doses. • (iii) Murine cell lines—Mammary luciferase (luc)-labeled 4T1 cell line (4T1-Luc) was a kind gift from Dr. Zvi Granot (Faculty of Medicine, The Hebrew University of Jerusalem, Israel); melanoma B16-F10 cell line was obtained from the American Type Culture Collection (ATCC, Manassas, Va.); bladder MB49 cell line was a kind gift from James Allison (MSKCC, New York, USA), and luc-labeled MB49-cell line was established using the murine stem cell virus (MSCV)-puromycin-luc-GFP construct (kindly provided by Dr. Emily Cheng, Human Oncology and Pathogenesis Program, MSKCC). 4T1 and MB49 cells were maintained in DMEM medium and B16-F10 cells in RPMI medium supplemented with 1 mmol/L sodium pyruvate, 10% fetal calf serum (FCS), 250 μg/ml hygromycin, 0.06 mg/ml penicillin and 0.1 mg/ml streptomycin. The cells were grown as monolayer at 37° C. in a humidified atmosphere (5% CO2, 95% air). • (iv) Murine tumor models—Female, Balb/c mice (6-8 week old) were grafted either subcutaneously (s.c.) into the right hind leg or orthotopically with 1×10^6 4T1 cells suspended in 50 or 1000 PBS. For the rechallenge study, 2×10^5 4T1 cells were orthotopically grafted. For bladder cancer model, 5×10^4 of MB49 or MB49-luciferase cell line were s.c. injected into the right flank of C57B/6 male mice (7-8 weeks old, Taconic, Hudson, N.Y.) 15 days prior to VTP treatment. For the efficacy study of VTP in immune compromised mice, the same number of MB49 cells was injected in the flank of Rag^−/− on C57B/6 background or C57B/6 male mice (7-8 week old, Jackson Laboratory, Bar Harbor, Me.). […] Whole body imaging of luciferase-transfected tumors and metastases were recorded five minutes following 75 mg Kg^−1 intraperitoneal (i.p.) injection of D-luciferin with respective filter sets. • (vi) PDT treatment protocol: 4T1-Luc cells were grafted in the mammary pad of Balb/c mice. […]

[3] = test system: splenic immune cells of 4T1-bearing mice; test: FACS profile of splenic immune cell populations in 4T1-bearing mice after STL-6014 PDT and Gemzar; format: in vivo
Method: as §1

[4] = test system: Foxp3+ Treg, CD8+ T cells, G-MDSC/neutrophils; format: in vivo
Method: (§2) • (i) Bacteriochlorophyll Derivatives—The Bchl derivatives and RGD-conjugates thereof were provided by Steba Biotech (Rehovot, Israel). […] Concentration was verified by spectrophotometric measurement. STL-7012 was provided as dipotassium salt. Working solution was prepared by dissolving STL-7012 K^+ salt in 5% mannitol solution (1 mg/ml). […] WST11 was supplied as a powder and kept in the dark at −20° C. Stock was prepared by dissolving WST11 in DDW containing 5% glucose and 0.67% mannitol, aliquoted and lyophilized. Working solution was reconstituted with DDW and the concentration of solution was confirmed spectrophotometrically. Alternatively, Clinical WST11 (batch: P00611, and 10-130611) was supplied as lyophilized formulation. Material was dissolved in 5% dextrose, aliquoted and stored at −20° C. […] Aliquots were thawed, diluted with saline to a desired concentration and used on the same day at a dose of 75 mg/kg. Cyclophosphamide (CTX, Endoxan®, Baxter Oncology Gmbh, Germany) was purchased from a local pharmacy. A stock solution of 20 mg/ml was prepared by dissolving in 0.9% NaCl, aliquoted and stored at −20° C. Aliquots were thawed, diluted with saline if needed to a desired concentration and used on the same day prepared at indicated doses. • (iii) Murine cell lines—Mammary luciferase (luc)-labeled 4T1 cell line (4T1-Luc) was a kind gift from Dr. Zvi Granot (Faculty of Medicine, The Hebrew University of Jerusalem, Israel); melanoma B16-F10 cell line was obtained from the American Type Culture Collection (ATCC, Manassas, Va.); bladder MB49 cell line was a kind gift from James Allison (MSKCC, New York, USA), and luc-labeled MB49-cell line was established using the murine stem cell virus (MSCV)-puromycin-luc-GFP construct (kindly provided by Dr. Emily Cheng, Human Oncology and Pathogenesis Program, MSKCC). 4T1 and MB49 cells were maintained in DMEM medium and B16-F10 cells in RPMI medium supplemented with 1 mmol/L sodium pyruvate, 10% fetal calf serum (FCS), 250 μg/ml hygromycin, 0.06 mg/ml penicillin and 0.1 mg/ml streptomycin. The cells were grown as monolayer at 37° C. in a humidified atmosphere (5% CO2, 95% air). • (iv) Murine tumor models—Female, Balb/c mice (6-8 week old) were grafted either subcutaneously (s.c.) into the right hind leg or orthotopically with 1×10^6 4T1 cells suspended in 50 or 1000 PBS. […] Whole body imaging of luciferase-transfected tumors and metastases were recorded five minutes following 75 mg Kg^−1 intraperitoneal (i.p.) injection of D-luciferin with respective filter sets. • (vi) PDT treatment protocol: 4T1-Luc cells were grafted in the mammary pad of Balb/c mice. […] Ablation of primary tumors was assessed every 7 days by imaging the tumor's luciferase-mediated bioluminescence signal, using IVIS.

[5] = test system: s.c. 4T1-luc breast tumors; test: WST11 VTP with or without single dose CTX in mice bearing s.c. 4T1-luc tumors in the hind leg (Scheme 4); format: in vivo, Balb/c mice; details: CTX 50 or 150 mg/kg alone; WST11 VTP at low light intensity (100 mW/cm^2) alone; or combination
Method: as §2

CC[C@H]1c2cc3[nH]c(c(CC(=O)OC)c4nc(cc5[nH]c(cc(n2)[C@@H]1C)c(C(C)=O)c5C)[C@@H](C)[C@@H]4CCC(=O)O)c(C(=O)NCCS(=O)(=O)[O-])c3C.[K+] [STL-7012, 3^1-oxo-15-methoxycarbonylmethyl-Rhodobacteriochlorin 13^1-(2-sulfoethyl) amide dipotassium salt]
clearance [1]: cleared through the liver within a few hours of injection | accumulation in the tumor (NIR fluorescence) ([1]; STL-6014 7.5 mg/kg, STL-7012 9.5 mg/kg): did not accumulate in the tumor

3^1-oxo-15-methoxycarbonylmethyl-Rhodobacteriochlorin 13^1-(2-sulfoethyl)amide-17^3-(cycloRGDfK) amide potassium salt [STL-6014]
survival compared to control (Kaplan-Meier) ([2]; 120 days follow up, monotherapy): did not show any significant survival difference | animals with primary tumor regrowth ([2]; day 30 post treatment): 82% | percentage of G-MDSC/neutrophils and M-MDSC in spleen compared to control ([3]; first week post treatment): significantly reduced | effect on Treg populations in spleen compared with controls ([3]; mouse, in vivo): Much smaller effects

O=P1(N(CCCl)CCCl)NCCCO1 (stereo not shown) [CTX, Cyclophosphamide]
number of cells in the draining lymph nodes and spleens ([4]; low dose CTX three days prior VTP, on the VTP day): reduced | tumor infiltration by regulatory Foxp3+ T cells ([4]; three days after CTX administration): significantly reduces | G-MDSC/neutrophils in the tumor microenvironment ([4]; three days post low dose CTX (VTP day)): reduced | primary tumor growth [5]: unable to suppress primary tumor growth
